Data as given in patent publication US11185516B2 (Laboratorios Silanes S.A. DE C.V., priority 2016, dated 2021).

Legend:
[1] = system: IRS2 knockout mice (IRS2-/-); settings: 100 mg/kg/day, 8 weeks
Method: At the 8-week treatment time point, there were 6 mice in each treatment group. Adipose tissue was collected upon sacrifice and frozen in liquid N2. Lipidomics analysis of the tissue was then performed using HPLC/MS. […] Statistical differences between the experimental groups shown in FIG. 22 were assessed by Student's T test. P value of <0.01 is indicated by **.

[2] = biological target: GPBP (Mus musculus, UniProt Q9EQG9); settings: 10 mM, 3 h, FIG. 6B
GPBP (Mus musculus, UniProt Q9EQG9), sequence (Q9EQG9 whole entry): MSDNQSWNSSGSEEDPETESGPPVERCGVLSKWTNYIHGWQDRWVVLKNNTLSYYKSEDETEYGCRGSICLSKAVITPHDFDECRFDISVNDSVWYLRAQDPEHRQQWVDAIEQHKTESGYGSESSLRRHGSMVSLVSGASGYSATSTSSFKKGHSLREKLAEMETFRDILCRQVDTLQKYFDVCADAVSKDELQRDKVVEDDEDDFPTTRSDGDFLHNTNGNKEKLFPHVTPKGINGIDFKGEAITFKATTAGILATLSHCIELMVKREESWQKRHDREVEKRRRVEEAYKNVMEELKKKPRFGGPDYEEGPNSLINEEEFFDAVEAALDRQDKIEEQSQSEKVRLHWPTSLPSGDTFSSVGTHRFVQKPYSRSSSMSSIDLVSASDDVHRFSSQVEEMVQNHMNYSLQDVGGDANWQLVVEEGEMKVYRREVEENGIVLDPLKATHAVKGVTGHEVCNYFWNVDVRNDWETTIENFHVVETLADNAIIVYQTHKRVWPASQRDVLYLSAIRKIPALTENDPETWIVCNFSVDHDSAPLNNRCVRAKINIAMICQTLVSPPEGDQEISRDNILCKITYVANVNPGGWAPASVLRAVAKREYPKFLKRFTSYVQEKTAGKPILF
Method: The cells were lysed in a lyse buffer ([…], […], 1% Triton X-100, 1 μM phenylmethylsulphonylfluoride (PMSF) and 10 μg/mL leupeptin) for 30 min at 4° C. Lysates were centrifuged at 16000×g for 5 min at 4° C. and the total protein concentration of the supernatants determined with the Bradford reagent (Bio-Rad). The samples were analyzed by Western blot using the anti-GPBP mAb-N27 and detected with chemoluminiscence (ECL Prime, GE Healthcare).

[3] = system: IRS2 knockout mice (KO IRS2); assay: Serum triglycerides in IRS2 knockout mice; format: in vivo, mouse; settings: 100 mg/kg/day, 8 weeks, fasting
Method: At the 8-week treatment time point, there were 8 mice in each of the WT groups, 6 mice in the KO IRS2 untreated control group, 7 mice in the KO IRS2 SLN1 treated group, and 8 mice in the KO SLN2 treated group. Blood was collected at the time of sacrifice and used to measure TG under fasting conditions. […] Statistical differences between the experimental groups shown in FIG. 21 were assessed by Student's T test. P value of <0.05 is indicated by *.

[4] = 2:1 complex (2 molecules of metformin for 1 of glycine), aqueous solution
[5] = system: VAPA and VAMPs; assay: Colocalization of VAPA and VAMPs (FIG. 18)
[6] = system: insulin receptor (IRβ); settings: 10 mM, 3 h
Source text: Next, cells were washed with PBS and their membrane proteins were extracted.

[7] = biological target: GPBP and AKT (Homo sapiens, UniProt Q9Y5P4); settings: 5 mM
GPBP and AKT, sequence (Q9Y5P4 whole entry): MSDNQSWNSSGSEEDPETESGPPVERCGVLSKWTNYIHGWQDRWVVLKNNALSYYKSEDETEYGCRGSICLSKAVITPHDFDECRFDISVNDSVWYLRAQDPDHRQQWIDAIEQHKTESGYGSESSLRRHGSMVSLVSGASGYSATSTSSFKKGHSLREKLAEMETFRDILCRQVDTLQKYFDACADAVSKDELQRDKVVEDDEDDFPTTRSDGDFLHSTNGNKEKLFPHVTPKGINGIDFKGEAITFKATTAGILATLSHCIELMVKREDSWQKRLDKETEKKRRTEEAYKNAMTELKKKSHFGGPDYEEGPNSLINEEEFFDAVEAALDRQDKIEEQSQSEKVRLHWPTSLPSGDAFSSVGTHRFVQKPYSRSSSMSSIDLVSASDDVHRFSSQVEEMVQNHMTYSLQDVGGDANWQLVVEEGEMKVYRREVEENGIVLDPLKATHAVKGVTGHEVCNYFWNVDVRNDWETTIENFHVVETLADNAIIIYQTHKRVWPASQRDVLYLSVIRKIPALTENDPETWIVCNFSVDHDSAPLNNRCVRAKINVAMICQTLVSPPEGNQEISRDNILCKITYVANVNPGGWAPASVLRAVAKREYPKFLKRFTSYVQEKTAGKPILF
Method: Two hundred nanograms of AS160 (Origene Technologies) was incubated either in the absence (−) or in the presence (+) of FLAG-GPBP (270 ng), AKT (Millipore) (200 ng) and SLN1 or SLN2 (5 mM) in phosphorylation solution (β-glycerophosphate 25 mM (pH 7.0), EDTA 0.5 mM, EGTA 0.5 mM, MgCl2 8 mM, MnCl2 5 mM, DTT 1 mM) without ATP for 10 min at RT, after which [γ-^32P] ATP (Perkin Elmer) (0.132 μM) and ATP (Sigma) (100 μM) were added. Reaction cocktails (25 μl) were incubated at 30° C. for 15 min, and stirred (350 rpm).

[8] = biological target: GPBP (Homo sapiens, UniProt Q9Y5P4); settings: 1 mM, FIG. 6A
GPBP (Homo sapiens, UniProt Q9Y5P4), sequence (Q9Y5P4 whole entry): as above
Method: The reaction mixtures (25 μl) were incubated at 30° C. with shaking (350 rpm) for 15 min, and then analyzed by SDS PAGE. The proteins were electrotransferred to a PVDF membrane (Immobilon P, Millipore). The membranes were subjected to autoradiography (^32P), and then detection with anti-FLAG antibodies (ECL Prime, GE Healthcare, WB anti-FLAG).

[9] = system: GLUT4; assay: GLUT4 translocation (FIG. 19A)
[10] = system: proIL-1β, TNFα, iNOS, IL-6, MCP-1 and IL-12; assay: Inflammation marker expression in palmitate-stimulated L1 adipocytes (RT-qPCR); format: cell-based; settings: 10 mM, palmitate 500 μM, 24 h
Method: Palmitate is a saturated fatty acid that simulates an experimental obese state. It can be used as a pro-inflammatory stimulant for cytokines such as proIL-1β, TNFα, iNOS, IL-6, MCP-1 and IL-12.
Next, the relative expression of inflammation markers was analyzed by RT and qPCR using HPRT-1 as a normalizer and the untreated cell expression levels as a reference (for MCP-1 and IL-12) or those treated palmitate. After the treatments, culture media were collected and subsequently analyzed, cells were washed with PBS, and RNA was extracted (illustra RNAspin Mini, GE Healthcare) and reverse transcribed (High Capacity cDNA Reverse Transcription Kit, Life Technologies). The expression of the genes that were the object of the study was analyzed by qPCR using specific probes (TaqMan® Gene Expression Assays, Life Technologies). The relative expression (RQ), represented in the figure, was calculated by the ΔΔCt method.

[11] = system: IRS2 knockout mice (KO IRS2); assay: Body weight in IRS2 knockout mice; format: in vivo, mouse; settings: 100 mg/kg/day, 8 weeks
Method: Body weight of the mice was measured prior to the onset of treatment, at 4 weeks after treatment, and at 8 weeks after treatment. There were 8 mice in each group at the pre-treatment and 4-week treatment time points. […] Statistical differences between the experimental groups shown in FIG. 20 were assessed by Student's T test. P value of <0.05 is indicated by *.

Question: Which “adipose tissue triglyceride 16:0 compared to control IRS2−/−” value [1] does the source give for CN(C)C(=N)NC(=N)N [Metformin glycinate, N,N-dimethylimidodicarbonimidic diamide glycinate] here?
Answer: Its value is “significantly lower”.

Question: What about the “adipose tissue triglyceride 18:1n-9c compared to control IRS2−/−” value [1] of the same molecule?
Answer: Its value is “drastically reduced”.

Question: What about the “GPBP dephosphorylation vs untreated or metformin treated cells” value [2] of the same molecule?
Answer: Its value is “more GPBP dephosphorylation”.

Question: What about the “serum triglycerides compared to untreated KO IRS2” value [3] of the same molecule?
Answer: Its value is “lower”.

Question: What about the complexation constant [4] of the same molecule?
Answer: The complexation constant was 712±19.

Question: And the “colocalization of VAPA and VAMPS” value [5]?
Answer: Its value is “reduced colocalization”.

Question: And the “accumulation of IRβ on the cell membrane vs metformin hydrochloride” value [6]?
Answer: The value was “significantly more accumulation”.

Question: And the “GPBP and AKT cross activation” value [7]?
Answer: The value was “counteracted GPBP and AKT cross activation”.

Question: And the GPBP auto-phosphorylation activity [8]?
Answer: The GPBP auto-phosphorylation activity was “inhibition of GPBP auto-phosphorylation activity”.

Question: What about the GLUT4 translocation [9] of the same molecule?
Answer: The GLUT4 translocation was “translocated GLUT4”.

Question: And the “anti-inflammatory effectiveness, comparison of the two salts” value [10]?
Answer: The value was “significantly more effective than metformin hydrochloride”.

Question: What about the “inflammatory response of palmitate-stimulated adipocytes” value [10] of the same molecule?
Answer: The value was “attenuated the inflammatory response”.

Question: What about the “average body weight, post- vs pre-treatment” value [11] of the same molecule?
Answer: The value was “significantly lower after 8 weeks than before treatment”.
